The supplement of paper PMC13380429

Key:
Conditions in all cases: 72 h
Vero E6 [1] = assay: cell viability relative to DMSO; higher = less toxic
Caco-2 [2] = assay: as above
U2OS [3] = assay: as above
Calu-3 [4] = assay: as above
HepG2 [5] = assay: as above
Vero E6 [6] = assay: relative viability EC50 (midpoint between 100% and the lowest measured viability); higher = less toxic
Caco-2 [7] = assay: as above
U2OS [8] = assay: as above
Calu-3 [9] = assay: as above
HepG2 [10] = assay: as above
Vero E6 [11] = assay: drug sensitivity score (DSS) for viability; higher = more toxic; extreme values may be limits of the assay
Caco-2 [12] = assay: as above
U2OS [13] = assay: as above
Calu-3 [14] = assay: as above
HepG2 [15] = assay: as above

Compound | cell viability (Vero E6 [1]; 1 nM) [%] | cell viability (Vero E6 [1]; 10 nM) [%] | cell viability (Vero E6 [1]; 100 nM) [%] | cell viability (Vero E6 [1]; 1000 nM) [%] | cell viability (Vero E6 [1]; 10000 nM) [%] | cell viability (Caco-2 [2]; 1 nM) [%] | cell viability (Caco-2 [2]; 10 nM) [%] | cell viability (Caco-2 [2]; 100 nM) [%] | cell viability (Caco-2 [2]; 1000 nM) [%] | cell viability (Caco-2 [2]; 10000 nM) [%] | cell viability (U2OS [3]; 1 nM) [%] | cell viability (U2OS [3]; 10 nM) [%] | cell viability (U2OS [3]; 100 nM) [%] | cell viability (U2OS [3]; 1000 nM) [%] | cell viability (U2OS [3]; 10000 nM) [%] | cell viability (Calu-3 [4]; 1 nM) [%] | cell viability (Calu-3 [4]; 10 nM) [%] | cell viability (Calu-3 [4]; 100 nM) [%] | cell viability (Calu-3 [4]; 1000 nM) [%] | cell viability (Calu-3 [4]; 10000 nM) [%] | cell viability (HepG2 [5]; 1 nM) [%] | cell viability (HepG2 [5]; 10 nM) [%] | cell viability (HepG2 [5]; 100 nM) [%] | cell viability (HepG2 [5]; 1000 nM) [%] | cell viability (HepG2 [5]; 10000 nM) [%] | relative viability EC50 (Vero E6 [6]) [µM] | relative viability EC50 (Caco-2 [7]) [µM] | relative viability EC50 (U2OS [8]) [µM] | relative viability EC50 (Calu-3 [9]) [µM] | relative viability EC50 (HepG2 [10]) [µM] | drug sensitivity score (Vero E6 [11]) | drug sensitivity score (Caco-2 [12]) | drug sensitivity score (U2OS [13]) | drug sensitivity score (Calu-3 [14]) | drug sensitivity score (HepG2 [15])
C=CCN1C[C@H](C(=O)N(CCCN(C)C)C(=O)NCC)C[C@@H]2c3cccc4[nH]cc(c34)C[C@H]21 [cabergoline] | 103 | 98 | 88.9 | 96.1 | 95.7 | 108 | 95.2 | 83 | 89 | 89.5 | 101 | 100 | 96.5 | 101 | 103 | 106 | 99.7 | 97.1 | 107 | 99.4 | 89.3 | 95.2 | 106 | 92.8 | 90.7 | > 10 | > 10 | > 10 | > 10 | > 10 | 0 | 4 | 0 | 0 | 0
C/C=C1\NC(=O)[C@H]2CSSCC/C=C/[C@H](CC(=O)N[C@H](C(C)C)C(=O)N2)OC(=O)[C@H](C(C)C)NC1=O [romidepsin] | 98.1 | 102 | 87.8 | 0.1 | -0.1 | 104 | 124 | 6.6 | 1.4 | 0.2 | 96.9 | 55.5 | 5.6 | 0.5 | 0.2 | 92.5 | 39.4 | 8.7 | 6.3 | 2.5 | 87.1 | 31.9 | 0.5 | -0.4 | 0.1 | 0.217 | 0.0451 | 0.0117 | 0.0068 | 0.0052 | 20 | 28.5 | 35.1 | 37 | 39.4
NS(=O)(=O)c1cc2c(cc1Cl)NC(C1CC3C=CC1C3)NS2(=O)=O (stereo not given) [cyclothiazide] | 94.4 | 102 | 91.2 | 92.5 | 105 | 92.4 | 89 | 103 | 81.8 | 91.2 | 93.7 | 95.2 | 99.9 | 94.3 | 97.7 | 101 | 96.7 | 95.3 | 112 | 100 | 90.8 | 104 | 88.9 | 99.9 | 93.8 | > 10 | > 10 | > 10 | > 10 | > 10 | 0 | 0 | 0 | 0 | 0
CCC(CC)(CC(=O)Nc1cccc(/C=C/c2nc(C3CCC3)cs2)c1)C(=O)O [cinalukast] | 101 | 109 | 101 | 98.2 | 96.6 | 99.2 | 97.1 | 102 | 96.9 | 90.7 | 102 | 96.7 | 107 | 99.4 | 103 | 98.9 | 89.9 | 88.1 | 88.4 | 101 | 97.4 | 108 | 106 | 91.9 | 95.7 | > 10 | > 10 | > 10 | > 10 | > 10 | 0 | 0 | 0 | 0 | 0
Nc1nc2c(ncn2[C@@H]2O[C@H](CO)[C@@H](O)[C@H]2O)c(=O)[nH]1 [guanosine] | 92.6 | 93.5 | 92.4 | 89.7 | 102 | 85.6 | 102 | 97.8 | 99.9 | 105 | 96.9 | 102 | 98.2 | 100 | 102 | 96 | 102 | 100 | 97 | 101 | 102 | 95.8 | 105 | 100 | 102 | > 10 | > 10 | > 10 | > 10 | > 10 | 0 | 0 | 0 | 0 | 0
O=C(O)c1cnn(-c2nc3cc(OC(F)(F)F)c(Cl)cc3[nH]2)c1 | 97.2 | 104 | 100 | 103 | 93.7 | 104 | 92.7 | 97.6 | 103 | 93.6 | 101 | 96 | 90.3 | 88.8 | 93.3 | 89.5 | 106 | 105 | 102 | 98.5 | 93.8 | 96.2 | 91.9 | 104 | 88.1 | > 10 | > 10 | > 10 | > 10 | > 10 | 0 | 0 | 0.5 | 0 | 0
C=C1CC[C@H](O)C/C1=C/C=C1\CCC[C@]2(C)[C@@H]([C@H](C)CCCC(C)(C)O)CC[C@@H]12 [calcifediol] | 98.9 | 95 | 98.1 | 97.3 | 97 | 107 | 90.2 | 107 | 92.3 | 91.8 | 106 | 97.5 | 105 | 98.1 | 95 | 98.2 | 91.4 | 78.8 | 103 | 107 | 92.6 | 103 | 97.1 | 103 | 101 | > 10 | > 10 | > 10 | > 10 | > 10 | 0 | 0 | 0 | 0 | 0
